In patent US20040191811A1, “Methods for measuring levels of uridine-diphosphate-N-acetylglucosamine and activity of inhibitors thereof” (priority 2002, published 2004):
Like-named read-outs stand apart in the source and are kept apart here.

Key:
[1] = biological target: T1, GFAT-beta (Homo sapiens, UniProt O94808); assay: GFAT-beta inhibition, microtiter plate glucosamine 6-phosphate assay; assay type: biochemical
T1 construct: made in house; host or cells: SF9 insect cells (sonicated, centrifuged cell extract, not purified)
T1 sequence (O94808 whole entry): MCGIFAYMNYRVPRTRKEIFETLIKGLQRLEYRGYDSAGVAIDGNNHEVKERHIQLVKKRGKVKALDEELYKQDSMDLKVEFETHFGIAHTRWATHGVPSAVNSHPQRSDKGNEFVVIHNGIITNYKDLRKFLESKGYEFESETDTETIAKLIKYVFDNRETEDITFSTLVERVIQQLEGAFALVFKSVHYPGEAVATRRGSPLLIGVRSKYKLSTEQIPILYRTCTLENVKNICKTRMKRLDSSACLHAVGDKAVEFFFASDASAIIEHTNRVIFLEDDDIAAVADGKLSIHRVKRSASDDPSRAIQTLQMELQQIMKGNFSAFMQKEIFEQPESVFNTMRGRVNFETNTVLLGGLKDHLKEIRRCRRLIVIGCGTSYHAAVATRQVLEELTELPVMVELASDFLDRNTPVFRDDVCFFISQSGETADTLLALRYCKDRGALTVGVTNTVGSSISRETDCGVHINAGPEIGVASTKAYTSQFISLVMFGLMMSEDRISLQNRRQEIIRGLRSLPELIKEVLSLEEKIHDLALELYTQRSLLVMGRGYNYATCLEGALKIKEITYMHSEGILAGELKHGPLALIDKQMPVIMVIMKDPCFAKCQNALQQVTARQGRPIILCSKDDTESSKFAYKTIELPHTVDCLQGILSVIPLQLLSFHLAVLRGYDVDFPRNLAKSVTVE
Procedure: Stimulation of GFAT activity. […] For most testing, a 60-minute incubation at 37° C. is carried out in 96 well microtiter plates. To give the best heat transfer the plates are sealed with a Costar plate sealer and floated on a 37° C. water bath. Air bubbles are removed from the bottom of the plate to ensure proper heat transfer to all wells. […] A mixture of the incubation reagents is kept on ice and the enzyme is added to the mixture just before addition to the plate. Additional incubation mixture is kept on ice to add to standard and control samples. […] If test agents are to be used, 10 μl is added to the appropriate wells and the vehicle is added to the control wells before addition of the incubation mixture. 15 wells are left blank for addition of control and standard glucosamine 6-phosphate samples. After the incubation, 10 μl of the standards made up in the appropriate vehicle (DMSO) are added to the appropriate wells.

[2] = biological target: T2, GFAT-alpha (Homo sapiens, UniProt Q06210); assay: GFAT-alpha inhibition, microtiter plate glucosamine 6-phosphate assay; assay type: biochemical; settings: enzyme expressed in SF9 insect cells; glutamine 10 mM, fructose 6-phosphate 10 mM; 60 minutes at 37° C.
T2 construct: made in house; host or cells: SF9 insect cells (sonicated, centrifuged cell extract, not purified)
T2 sequence (Q06210 1-681 isoform Q06210-2): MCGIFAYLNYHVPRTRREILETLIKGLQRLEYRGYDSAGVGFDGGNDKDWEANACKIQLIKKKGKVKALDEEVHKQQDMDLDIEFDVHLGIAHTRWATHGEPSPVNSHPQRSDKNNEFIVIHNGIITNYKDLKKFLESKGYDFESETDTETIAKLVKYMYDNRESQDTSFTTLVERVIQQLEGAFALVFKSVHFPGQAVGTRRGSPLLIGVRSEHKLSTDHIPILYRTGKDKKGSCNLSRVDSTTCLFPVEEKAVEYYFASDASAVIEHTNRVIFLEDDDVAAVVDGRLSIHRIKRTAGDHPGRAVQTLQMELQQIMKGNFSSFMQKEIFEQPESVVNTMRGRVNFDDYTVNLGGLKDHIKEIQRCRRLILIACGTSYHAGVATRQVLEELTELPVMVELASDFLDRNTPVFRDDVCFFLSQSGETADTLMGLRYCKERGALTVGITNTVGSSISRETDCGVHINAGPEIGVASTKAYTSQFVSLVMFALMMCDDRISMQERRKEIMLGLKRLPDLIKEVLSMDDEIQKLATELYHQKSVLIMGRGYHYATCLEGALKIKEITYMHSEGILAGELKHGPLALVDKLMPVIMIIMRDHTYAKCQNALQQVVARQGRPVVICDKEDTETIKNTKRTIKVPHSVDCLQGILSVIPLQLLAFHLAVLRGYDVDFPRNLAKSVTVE
Procedure: Enzyme preparation. GFAT-alpha (GenBank Accession No. M90516) and GFAT-beta (Accession No. AB016789) are cloned into pET12 and pEF-BOS C vectors (New England BioLabs) for transfection into SF9 and Hi5 insect cells, COS, type 293 cells, and E.coli. Endogenous activity for each cell line was also measured in non-transfected cells. The enzymes are expressed in each cell line by growing in large 24×24 cm plates and harvesting 20 hours after transfection. The media is removed and the plates are washed in 15 ml PBS. 1.5 ml of a lysis buffer (PBS 1×, KCl 50 mM, EDTA 10 mM, with protease inhibitors leupeptin 10 ug/ml, PMSF 20 ug/ml, A-protinin 30 ug/ml, and pepstatin 10 ug/ml) is added to each plate and the cells are removed using a large plastic cell scraper. […] The cell #/lysis volume is about 4×10^7cell/ml. The suspension is sonicated on ice (Branson sonicator setting 2.5 to 3) for 15 seconds using a microtip. The sonicated cell extracts are stored in microfuge tubes at −80° C. Before use, the extracts are centrifuged at 15000×g for 5 minutes at 4° C. Each enzyme preparation is titrated to determine the volume that gives between 20 to 30 umoles of glucosamine 6-phosphate in a reaction mixture in a 60-minute incubation at 37° C. (FIGS. 1A and 1B).
Stimulation of GFAT activity. […] For most testing, a 60-minute incubation at 37° C. is carried out in 96 well microtiter plates. To give the best heat transfer the plates are sealed with a Costar plate sealer and floated on a 37° C. water bath. Air bubbles are removed from the bottom of the plate to ensure proper heat transfer to all wells. The 100 μl reaction volume consists of glutamine 10 mM, fructose 6-phosphate 10 mM, PBS 1×, EDTA 5 mM, DTT 1 mM and the enzyme preparation. A mixture of the incubation reagents is kept on ice and the enzyme is added to the mixture just before addition to the plate. Additional incubation mixture is kept on ice to add to standard and control samples. […] If test agents are to be used, 10 μl is added to the appropriate wells and the vehicle is added to the control wells before addition of the incubation mixture. […] A concentration range of 2.5 to 30 umoles is in the linear portion of the curve and covers the quantity of glucosamine 6-phosphate produced under the incubation conditions (FIG. 4). The cold mixture is added to the standard sample wells and the glucosamine 6-phosphate is then measured.
Measurement of glucosamine 6-phosphate The reaction is started by adding the incubation mixture to the appropriate wells in a microtiter plate and placing the plate on a 37° C. water bath. […] The acetylated glucosamine is measured by the Morgan and Elson color reaction (Morgan. W. T. J. & Elson, L. A. (1934).Biochem. J. 28, 988). […]

[3] = enzyme expressed in SF9 insect cells, glutamine 10 mM, fructose 6-phosphate 10 mM, 60 minutes at 37° C., read-out: IC50 for inhibition of GFAT-beta

Row | IC50 [1, 3] [µM] | Compound | IC50 [1] [µM] | IC50 [2] [µM] | times as much required to inhibit GFAT-beta compared with GFAT-alpha ([1]; ratio of IC50 GFAT-beta to IC50 GFAT-alpha)
1 |  | [N-]=[N+]=CC(=O)CC[C@H](N)C(=O)O [DON, 6-diazo-5-oxo-L-norleucine] | 18 | 18 | 
2 | 2.3 | COC(=O)/C=C/C(=O)NC[C@H](N)C(=O)O [FMDP, N3-(-4-methoxyflumaroyl)-L-2,3-diaminopropanoic acid] |  | 4 | 
3 | 0.27 | N[C@@H](CNC(=O)CBr)C(=O)O [N3-(bromoacetyl)-L-2,3-diaminopropanoic acid] |  | 0.38 | 

Row | Compound | IC50 [1, 3] [µM] | IC50 [1] [µM] | IC50 [2] [µM] | times as much required to inhibit GFAT-beta compared with GFAT-alpha ([1]; ratio of IC50 GFAT-beta to IC50 GFAT-alpha)
4 | uridine-diphosphate-N-acetylglucosamine [UDP-N-acetylglucosamine] | 100 |  | 8 | more than 12 times
